Columns and labels:
[1] = test system: G4 Telo (FRET) (DNA, G4) GGGTTAGGGTTAGGGTTAGGG; assay: FRET melting; details: 60 mM potassium cacodylate; pH 7.4; 1 µM compound, 200 nM DNA
[2] = test system: G4 Myc (fluorescence quench) (DNA, G4) TGGGGAGGGTGGGGAGGGTGGGGAAGG; assay: fluorescence quench binding assay; details: 150 mM KCl; for Kd: 50 mM Tris HCl pH 7.2, 0.5% CHAPS, 0.05% Triton X-100, apparent, 9 nM DNA
[3] = test system: G4 Kit1 (FRET) (DNA, G4) GGGAGGGCGCTGGGAGGAGGG; assay: FRET melting; details: 60 mM potassium cacodylate; pH 7.4; increasing compound concentration up to 3 µM, 200 nM DNA
[4] = test system: G4 Kit1 (fluorescence quench) (DNA, G4) AGGGAGGGCGCTGGGAGGAGGG; assay: fluorescence quench binding assay; details: 150 mM KCl; for Kd: 50 mM Tris HCl pH 7.2, 0.5% CHAPS, 0.05% Triton X-100, apparent, 9 nM DNA
[5] = test system: G4 Telo (fluorescence quench) (DNA, G4) AGGGTTAGGGTTAGGGTTAGGGT; assay: fluorescence quench binding assay; details: 150 mM KCl; for Kd: 50 mM Tris HCl pH 7.2, 0.5% CHAPS, 0.05% Triton X-100, apparent, 9 nM DNA
[6] = test system: G4 Myc (FRET) (DNA, G4) TGAGGGTGGGTAGGGTGGGTAA; assay: FRET melting; details: 60 mM potassium cacodylate; pH 7.4; 1 µM compound, 200 nM DNA
[7] = test system: dsDNA (fluorescence quench) (DNA, duplex) CAATCGGATCGAATTCGATCCGATTG; assay: fluorescence quench binding assay; details: 150 mM KCl; 50 mM Tris HCl pH 7.2, 0.5% CHAPS, 0.05% Triton X-100; apparent; 9 nM DNA
[8] = test system: dsDNA (FRET) (DNA, hairpin, hexaethylene glycol (HEG, [(-CH2CH2O-)6]) linker between nucleotides 10 and 11) TATAGCTATATATAGCTATA; assay: FRET melting; details: 60 mM potassium cacodylate; pH 7.4; increasing compound concentration up to 3 µM, 200 nM DNA
[9] = 50 mM Tris HCl pH 7.2, CHAPS, Triton X-100, highest concentration tested 5 µM

Row | ΔTm [1] [°C] | binding [2, 9] | binding [3] | binding [4, 9] | binding [5, 9] | ΔTm [6] [°C] | Kd [2] [nM] | Kd [7] | Kd [4] [nM] | Kd [5] [nM] | binding [8] | SMILES
1 | 0 | no | no | no | no | 0 |  |  |  |  |  | C#CCCC1(CCC(=O)NC)N=N1
2 | 27 |  | yes |  |  | 13 | 439 ± 36 | > 5,000 nM | 669 ± 49 | 459 ± 25 | no | C#CCCC1(CCC(=O)NCCOCCOCCNCCOc2cc(C(=O)Nc3cc(OCCN)c4ccccc4n3)nc(C(=O)Nc3cc(OCCN)c4ccccc4n3)c2)N=N1
3 | 25 |  | yes |  |  | 14 | 197 ± 10 | > 5,000 nM | 323 ± 13 | 306 ± 6 | no | C#CCCC1(CCNCCOc2cc(C(=O)Nc3cc(OCCN)c4ccccc4n3)nc(C(=O)Nc3cc(OCCN)c4ccccc4n3)c2)N=N1
4 |  |  |  |  |  |  | 168 ± 8 |  |  |  |  | NCCOc1cc(C(=O)Nc2cc(OCCN)c3ccccc3n2)nc(C(=O)Nc2cc(OCCN)c3ccccc3n2)c1
